The record followed here is patent publication US9181309B1, “Peptide regulation of maize defense responses” (The United States of America, as represented by the …, priority 2011, dated 2015).

One experiment has as its system maize leaf transcripts. The experiment can be described thus: Microarray analysis of transcript levels in ZmPep3 vs water-treated leaves. It is filed as in vivo, Zea mays. The conditions noted are these: leaves treated for 12 h. The source says:
The gene transcripts shown in FIG. 4 are a subset of the defense-related genes found to be induced by ZmPEP3 peptide in the excised leaf assays. Including these, a total of twenty genes have been identified as ZmPEP3-responsive. All can be classified as pertaining to four broad categories of defense-related genes; those encoding proteins that are directly antimicrobial, those encoding proteins that synthesize secondary metabolites associated with defense, those encoding proteins that are involved in reactive oxygen species-based signal transduction and detoxification, and those that encode biosynthetic proteins for the two main plant small molecule hormone regulators of defense, ethylene and oxylipins. To obtain a more global perspective of gene expression regulated by ZmPEP3, a microarray experiment was performed to compare expression levels in ZmPEP3 vs. water-treated leaves after […]. […] In FIG. 7, real-time quantification of expression levels of genes associated with direct and indirect herbivore defenses confirms that ZmPEP3 is a strong regulator of both defense responses. […] FIG. 8 lists defense-associated genes discovered to be induced by the ZmPEP3.
A microarray analysis of transcript levels in leaves that were treated for 12 h with either water or ZmPep3 was employed to better characterize the breadth of ZmPep3-regulated responses. […]

Experiment [1] deals with jasmonic acid and ethylene production in maize leaves. Nature of the experiment: Phytohormone (JA, ET) production in treated leaves. It is filed as in vivo, Zea mays. An excerpt: A further embodiment is ZmPEP3 regulated production of defense-related metabolites. The elicitor-induced phytohormones JA and ethylene (ET) function as signals integral to initiation of protective responses against pathogens and herbivores (Howe and Jander, Annu Rev Plant Biol. 59:41, 2008).

The subject of experiment [2] is defense metabolites in maize leaves. Nature of the experiment: Accumulation of defense metabolites within treated leaves (internal pools). It counts as in vivo, Zea mays. An excerpt: Induced terpene production is vital to anti-herbivore defenses in many plant species (Unsicker et al., Curr Opin Plant Biol. 12:479, 2009; Tholl, Curr Opin Plant Biol. 9:297, 2006; Keeling and Bohlmann, New Phytol 170:657, 2006). […] Expression of genes encoding the relevant biosynthetic enzymes, Anthranilic Acid Methyl Transferase 1 (AAMT1) and Indole-Glycerol Phosphate Lyase (IGL) were induced by both peptide and the insect elicitor ([…]., Plant Physiol 153:1795, 2010; Frey et al., Proc Natl Acad Sci USA. 97:14801, 2000). In addition to proteinaceous defenses, maize benzoxazinoids contribute to direct defenses against both herbivores and pathogens ([…] Agric Food Chem 57:1677, 2009). […] Oikawa et al., Phytochemistry. 56:669, 2001; Huffaker et al., Plant Physiol. 155:1325, 2011). […] It is hypothesized that simultaneous activation of both IGL and BX1 by ZmPep3 results in increased flux through the benzoxazinoid pathway to produce HDMBOA-Glc.

The next experiment deals with Cotesia marginiventris. The experiment can be described thus: Olfactometer assay of parasitoid wasp attraction to pretreated leaves. It counts as in vivo. An excerpt:
The generalist parasitoid Cotesia marginiventris attacks many Lepidopteran species including S. exigua and is attracted to herbivory-induced maize volatiles (Turlings et al., Science 250:1251, 1990). Precisely which components are attractive has been difficult to determine, and the wasps respond strongly to unidentified minor components when subjected to gas chromatograph-coupled electroantennography (Gouinguene et al., J Chem Ecol. 31:1023, 2005). To determine whether the ZmPep3-induced blend was attractive to naïve C. marginiventris, olfactometer assays were conducted with leaves pretreated with ZmPep3, Gln-18:3 or water for 16 h. To ensure that any preference was due to elicited plant responses and not to an inherent attraction or repellence to any treatment substance, leaves treated at time of assay were used as controls. […] Thus, ZmPep3-regulated responses are sufficient to generate effective indirect defenses against Lepidopteran herbivores.

The subject of experiment [3] is herbivore defense genes in maize leaves. The experiment can be described thus: Real time qPCR / qRT-PCR of defense and phytohormone biosynthesis genes in treated leaves. (In qPCR the cycle at which signal appears reflects the starting amount.)
Where [4] appears, read: equivalent molar concentrations.
Where [5] appears, read: low equivalent quantities of elicitor.
The mark [6] stands for this setting: real-time quantification, peptide-treated leaves.

In the case of “ZmPEP3: 23 amino acid maize plant elicitor peptide TRTPPWPPCPPEEGSGGNGGSHN (SEQ ID NO: 3) (Zea mays)”, in the experiment on maize leaf transcripts, the “BX1 and BX2 microarray probe sets” value is listed as “upregulated”; the “SerPIN probe set in microarray” value is “most highly upregulated probe set”. The “jasmonic acid accumulation in leaves” value in experiment [1] (ZmPEP3-treated leaves) is “found to accumulate”. In experiment [1] (low equivalent quantities), the “JA and ET increases, ZmPep3 compared to Gln-18:3” value was “greater magnitude and longer duration”. The “JA and ET synthesis” value in experiment [1] (low equivalent quantities of either elicitor) is “elicitation of JA and ET synthesis”. In addition, the “anthranilate and indole in leaves” value in experiment [2] (following treatment) is on record as “increased”. In experiment [2] (in vivo), the HDMBOA-Glc accumulation result was “increased accumulation”; the “anthranilate and indole accumulation, peptide vs Gln-18:3” value is reported as “significantly greater accumulation”. Moreover, the “accumulation of terpenes in internal pools, ZmPep3 vs Gln-18:3” value in experiment [2] (measured prior to volatile collection) is listed as “significantly greater accumulation of terpenes”. In addition, the “wasps attracted to ZmPep3-pretreated vs water-pretreated leaves” value with Cotesia marginiventris (16 h pretreatment) is listed as “more wasps were attracted”. The “wasp preference for leaves pretreated 16 h vs leaves treated at time of assay” value in the experiment with Cotesia marginiventris (naive C. marginiventris) is “strongly preferred”. Besides, the “BX1 and BX2 expression by qRT-PCR” value in experiment [3] (12 h post-treatment) was “expressed”. For the same substance, in experiment [3] (setting [4]), the “TPS10 and TPS23 gene expression, ZmPep3 versus Gln-18:3” value is “more strongly induced”; the “expression of genes encoding Terpene Synthases (TPS) 10 and 23” value is recorded as “strongly activate expression”. Moreover, in experiment [3] (in vivo), the “SerPIN and WIP1 expression by qRT-PCR” value is given as “highly expressed”; the “expression of AAMT1 and IGL genes” value is recorded as “induced”. In experiment [3] (setting [5]), the “ACC Oxidase and AOC transcript, ZmPep3-treated compared to Gln-18:3-treated leaves” value is given as “greater quantities of transcript”; the “accumulation of transcripts for ACC Oxidase, Allene Oxide Synthase and Allene Oxide Cyclase” value was “significantly increased accumulation of transcripts”. Also, in experiment [3] (setting [6]), the “upregulation of genes encoding proteinase inhibitor proteins” value is “more than a thousand-fold” and the “upregulation of genes encoding terpene synthases” value is reported as “more than a thousand-fold”.
